Experimental data reported in patent publication US11702429B2, “mTORC modulators and uses thereof” (Aeovian Pharmaceuticals, Inc., priority 2019, dated 2023).
Like-named read-outs stand apart in the source and are kept apart here.

What was measured:
mTORC1 = biological target: T1, mTORC1 (Homo sapiens, UniProt P42345+P62942); assay: Inhibition assay for mTORC1: phosphorylation of pS6K at Thr389, AlphaLISA in PC3 cells; format: cell-based; conditions: for IC50: read-out: pIC50 mTORC1 (converted)
T1 construct: endogenous in cells; host or cells: PC3 cells (human prostate adenocarcinoma)
Experimental: (§1) The IC50s of the inhibition of mTORC1 and mTORC2 were determined in vitro by determining the phosphorylation of pS6K at position Thr389 (mTORC1 inhibition) and pAkt at Ser473 (mTORC2 inhibition). In vitro studies were performed with AlphaLISA® technology using PC3 cells (Prostate Adenocarcinoma; Human (Homo sapiens)). The cells were seeded in 96 well plates and were treated for 24 hours with the different compounds. […] All analysis were performed using GraphPad Prism 7.0 (GraphPad Software, San Diego, USA).

mTORC2 = biological target: T2, mTORC2 (Homo sapiens, UniProt P42345+P62942); assay: Inhibition assay for mTORC2: phosphorylation of pAkt at Ser473, AlphaLISA in PC3 cells; format: cell-based; conditions: for IC50: read-out: pIC50 mTORC2 (converted)
T2 construct: endogenous in cells; host or cells: PC3 cells (human prostate adenocarcinoma)
Experimental: as §1

[1] = PC3 cells, treated 24 hours, pS6K Thr389, AlphaLISA, C16 diastereomer mixtures not separated
[2] = PC3 cells, treated 24 hours, pAkt Ser473, AlphaLISA, C16 diastereomer mixtures not separated

T2 sequence (P62942 2-108 limits assumed, other chains not shown): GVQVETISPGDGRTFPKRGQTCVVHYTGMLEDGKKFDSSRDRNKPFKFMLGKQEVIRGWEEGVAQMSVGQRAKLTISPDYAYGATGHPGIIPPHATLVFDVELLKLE

SMILES	IC50 (mTORC1) [nM]	IC50 (mTORC2) [nM]	also measured
COC1C[C@@H]2CC[C@@H](C)[C@@](O)(O2)C(=O)C(=O)N2CCCCC2C(=O)O[C@H]([C@H](C)C[C@@H]2CC[C@@H](OC(=O)NCc3ccccc3)[C@H](OC)C2)CC(=O)[C@H](C)/C=C(\C)[C@@H](O)[C@@H](OC)C(=O)[C@H](C)C[C@H](C)/C=C/C=C/C=C/1C (some centres unmarked) [Compound 355]	< 0.316	< 1000	
CO[C@@H]1C[C@H](C[C@@H](C)[C@@H]2CC(=O)[C@H](C)/C=C(\C)[C@@H](O)[C@@H](OC)C(=O)[C@H](C)C[C@H](C)/C=C/C=C/C=C(\C)C(OCCO)C[C@@H]3CC[C@@H](C)[C@@](O)(O3)C(=O)C(=O)N3CCCCC3C(=O)O2)CC[C@H]1OC(=O)NCCO (some centres unmarked) [Compound 64]			pIC50 mTORC1 (mTORC1; [1]): B (8.5 to 9.5 as B); pIC50 mTORC2 (mTORC2; [2]): A (PIC50 for mTORC2 of <5 as A)
COC1C[C@@H]2CC[C@@H](C)[C@@](O)(O2)C(=O)C(=O)N2CCCCC2C(=O)O[C@H]([C@H](C)C[C@@H]2CC[C@@H](OCCN3CCN(C)CC3)[C@H](OC)C2)CC(=O)[C@H](C)/C=C(\C)[C@@H](O)[C@@H](OC)C(=O)[C@H](C)C[C@H](C)/C=C/C=C/C=C/1C (some centres unmarked) [Compound 320]	< 0.316	< 1000	
COC1C[C@@H]2CC[C@@H](C)[C@@](O)(O2)C(=O)C(=O)N2CCCCC2C(=O)O[C@H]([C@H](C)C[C@@H]2CC[C@@H](OCCCN3CCC(O)CC3)[C@H](OC)C2)CC(=O)[C@H](C)/C=C(\C)[C@@H](O)[C@@H](OC)C(=O)[C@H](C)C[C@H](C)/C=C/C=C/C=C/1C (some centres unmarked) [Compound 368]	< 0.316	< 1000	
COC1C[C@@H]2CC[C@@H](C)[C@@](O)(O2)C(=O)C(=O)N2CCCCC2C(=O)O[C@H]([C@H](C)C[C@@H]2CC[C@@H](OC(=O)N(C)CCN3CCCCC3)[C@H](OC)C2)CC(=O)[C@H](C)/C=C(\C)[C@@H](O)[C@@H](OC)C(=O)[C@H](C)C[C@H](C)/C=C/C=C/C=C/1C (some centres unmarked) [Compound 318]	< 0.316	< 1000	
COC1C[C@@H]2CC[C@@H](C)[C@@](O)(O2)C(=O)C(=O)N2CCCCC2C(=O)O[C@H]([C@H](C)C[C@@H]2CC[C@@H](OC(=O)N(CCO)CCO)[C@H](OC)C2)CC(=O)[C@H](C)/C=C(\C)[C@@H](O)[C@@H](OC)C(=O)[C@H](C)C[C@H](C)/C=C/C=C/C=C/1C (stereo partly drawn) [Compound 357, [(1R,2R,4S)-4-[(2R)-2-[(1R,9S,12S,15R,16E,18R,19R,21R,23S,24E,26E,28E,30S,32S,35R)-1,18-dihydroxy-19,30-dimethoxy-15,17,21,23,29,35-hexamethyl-2,3,10,14,20-pentaoxo-11,36-dioxa-4-azatricyclo[30.3.1.0^4,9]hexatriaconta-16,24,26,28-tetraen-12-yl]propyl]-2-methoxy-cyclohexyl] N,N-bis(2-hydroxyethyl)carbamate]	< 0.316	< 1000	
COC1C[C@@H]2CC[C@@H](C)[C@@](O)(O2)C(=O)C(=O)N2CCCCC2C(=O)O[C@H]([C@H](C)C[C@@H]2CC[C@@H](OCCCN(C)C)[C@H](OC)C2)CC(=O)[C@H](C)/C=C(\C)[C@@H](O)[C@@H](OC)C(=O)[C@H](C)C[C@H](C)/C=C/C=C/C=C/1C (stereo partly drawn) [Compound 363, (1R,9S,12S,15R,16E,18R,19R, 21R,23S,24E,26E,28E,30S,32S,35R)-12-[(1R)-2-[(1S,3R,4R)-4-[3-(dimethylamino)propoxy]-3-methoxy-cyclohexyl]-1-methyl-ethyl]-1,18-dihydroxy-19,30-dimethoxy-15,17,21,23,29,35-hexamethyl-11,36-dioxa-4-azatricyclo[30.3.1.0^4,9]hexatriaconta-16,24,26,28-tetraene-2,3,10,14,20-pentone]	< 0.316	< 1000	
COC1C[C@@H]2CC[C@@H](C)[C@@](O)(O2)C(=O)C(=O)N2CCCCC2C(=O)O[C@H]([C@H](C)C[C@@H]2CC[C@@H](OCCCN3CCCCC3)[C@H](OC)C2)CC(=O)[C@H](C)/C=C(\C)[C@@H](O)[C@@H](OC)C(=O)[C@H](C)C[C@H](C)/C=C/C=C/C=C/1C (some centres unmarked) [Compound 341]	< 0.316	< 1000	
COCO[C@@H]1CC[C@@H](C[C@@H](C)[C@@H]2CC(=O)[C@H](C)/C=C(\C)[C@@H](O)[C@@H](OC)C(=O)[C@H](C)C[C@H](C)/C=C/C=C/C=C(\C)C(OC)C[C@@H]3CC[C@@H](C)[C@@](O)(O3)C(=O)C(=O)N3CCCCC3C(=O)O2)C[C@H]1OC (some centres unmarked) [Compound 301]	< 0.316	< 1000	
CO[C@@H]1C[C@H](C[C@@H](C)[C@@H]2CC(=O)[C@H](C)/C=C(\C)[C@@H](O)[C@@H](OC)C(=O)[C@H](C)C[C@H](C)/C=C/C=C/C=C(\C)C(c3ccc(C)s3)C[C@@H]3CC[C@@H](C)[C@@](O)(O3)C(=O)C(=O)N3CCCCC3C(=O)O2)CC[C@H]1O (some centres unmarked) [Compound 202]	> 3.16	1000 to 10000	
CO[C@@H]1C[C@H](C[C@@H](C)[C@@H]2CC(=O)[C@H](C)/C=C(\C)[C@@H](O)[C@@H](OC)C(=O)[C@H](C)C[C@H](C)/C=C/C=C/C=C(\C)C(OCCCc3ccccc3)C[C@@H]3CC[C@@H](C)[C@@](O)(O3)C(=O)C(=O)N3CCCCC3C(=O)O2)CC[C@H]1O (some centres unmarked) [Compound 207]	0.316 to 3.16	1000 to 10000	
CO[C@@H]1C[C@H](C[C@@H](C)[C@@H]2CC(=O)[C@H](C)/C=C(\C)[C@@H](O)[C@@H](OC)C(=O)[C@H](C)C[C@H](C)/C=C/C=C/C=C(\C)C(OCCO)C[C@@H]3CC[C@@H](C)[C@@](O)(O3)C(=O)C(=O)N3CCCC[C@H]3C(=O)O2)CC[C@H]1OCCN1CCCCC1 (mixture of isomers) [Compound 61]			IC50 (mTORC1; [1]): 0.316 to 3.16 nM; IC50 (mTORC2; [2]): > 10000 nM
CO[C@@H]1C[C@H](C[C@@H](C)[C@@H]2CC(=O)[C@H](C)/C=C(\C)[C@@H](O)[C@@H](OC)C(=O)[C@H](C)C[C@H](C)/C=C/C=C/C=C(\C)C(OCC(C)(C)O)C[C@@H]3CC[C@@H](C)[C@@](O)(O3)C(=O)C(=O)N3CCCCC3C(=O)O2)CC[C@H]1O (some centres unmarked) [Compound 216]	0.316 to 3.16	1000 to 10000	
COCCOC1C[C@@H]2CC[C@@H](C)[C@@](O)(O2)C(=O)C(=O)N2CCCC[C@H]2C(=O)O[C@H]([C@H](C)C[C@@H]2CC[C@@H](OCCCN3CCC(C(C)(C)O)CC3)[C@H](OC)C2)CC(=O)[C@H](C)/C=C(\C)[C@@H](O)[C@@H](OC)C(=O)[C@H](C)C[C@H](C)/C=C/C=C/C=C/1C (mixture of isomers) [Compound 74]			IC50 (mTORC1; [1]): < 0.316 nM; IC50 (mTORC2; [2]): 1000 to 10000 nM
COCCOC1C[C@@H]2CC[C@@H](C)[C@@](O)(O2)C(=O)C(=O)N2CCCC[C@H]2C(=O)O[C@H]([C@H](C)C[C@@H]2CC[C@@H](OCCCN3CCN(C(C)C)CC3)[C@H](OC)C2)CC(=O)[C@H](C)/C=C(\C)[C@@H](O)[C@@H](OC)C(=O)[C@H](C)C[C@H](C)/C=C/C=C/C=C/1C (mixture of isomers) [Compound 39]			IC50 (mTORC1; [1]): < 0.316 nM; IC50 (mTORC2; [2]): 1000 to 10000 nM
CO[C@@H]1C[C@H](C[C@@H](C)[C@@H]2CC(=O)[C@H](C)/C=C(\C)[C@@H](O)[C@@H](OC)C(=O)[C@H](C)C[C@H](C)/C=C/C=C/C=C(\C)C(OCCO)C[C@@H]3CC[C@@H](C)[C@@](O)(O3)C(=O)C(=O)N3CCCCC3C(=O)O2)CC[C@H]1OCCCN1CCO[C@H](C)C1 (some centres unmarked) [Compound 43]			pIC50 mTORC1 (mTORC1; [1]): A (pIC50 for mTORC1 of >9.5 as A); pIC50 mTORC2 (mTORC2; [2]): B (5 to 6 as B)
COC1C[C@@H]2CC[C@@H](C)[C@@](O)(O2)C(=O)C(=O)N2CCCCC2C(=O)O[C@H]([C@H](C)C[C@@H]2CC[C@@H](OCCN3CCOCC3)[C@H](OC)C2)CC(=O)[C@H](C)/C=C(\C)[C@@H](O)[C@@H](OC)C(=O)[C@H](C)C[C@H](C)/C=C/C=C/C=C/1C (some centres unmarked) [Compound 325]	< 0.316	< 1000	
COC1C[C@@H]2CC[C@@H](C)[C@@](O)(O2)C(=O)C(=O)N2CCCCC2C(=O)O[C@H]([C@H](C)C[C@@H]2CC[C@@H](OC(=O)N(C)CCCN(C)C)[C@H](OC)C2)CC(=O)[C@H](C)/C=C(\C)[C@@H](O)[C@@H](OC)C(=O)[C@H](C)C[C@H](C)/C=C/C=C/C=C/1C (some centres unmarked) [Compound 321]	< 0.316	< 1000	
COC1C[C@@H]2CC[C@@H](C)[C@@](O)(O2)C(=O)C(=O)N2CCCCC2C(=O)O[C@H]([C@H](C)C[C@@H]2CC[C@@H](OC(=O)N(C)CCO)[C@H](OC)C2)CC(=O)[C@H](C)/C=C(\C)[C@@H](O)[C@@H](OC)C(=O)[C@H](C)C[C@H](C)/C=C/C=C/C=C/1C (some centres unmarked) [Compound 313]	< 0.316	< 1000	
CO[C@@H]1C[C@H](C[C@@H](C)[C@@H]2CC(=O)[C@H](C)/C=C(\C)[C@@H](O)[C@@H](OC)C(=O)[C@H](C)C[C@H](C)/C=C/C=C/C=C(\C)C(OCCOCCO)C[C@@H]3CC[C@@H](C)[C@@](O)(O3)C(=O)C(=O)N3CCCCC3C(=O)O2)CC[C@H]1O (some centres unmarked) [Compound 224]	0.316 to 3.16	> 10000	
COC1CC2CCC(C)C(O)(O2)C(=O)C(=O)N2CCCCC2C(=O)OC(C(C)CC2CCC(OC(=O)C3(C)COC(C)(C)OC3)C(OC)C2)CC(=O)C(C)C=C(C)C(O)C(OC)C(=O)C(C)CC(C)C=CC=CC=C1C (centres unmarked) [Compound 309]	< 0.316	< 1000	
COC1CC2CCC(C)C(O)(O2)C(=O)C(=O)N2CCCCC2C(=O)OC(C(C)CC2CCC(O[Si](C)(C)C(C)(C)C)C(OC)C2)CC(=O)C(C)C=C(C)C(O)C(OC)C(=O)C(C)CC(C)C=CC=CC=C1C (centres unmarked) [Compound 302]	> 3.16	1000 to 10000	
